In the first assay the target is T1, Cys12 of the KRAS 4B G12C protein (Homo sapiens, UniProt P01116, G12C).
T1 construct: This protein contained 188 amino acids in total, including an N-terminal 6-Histidine tag; made in house; host or cells: E. coli BL21
Nature of the assay: In vitro covalent adduct formation (CAF) assay, LC-MS intact mass. Type of assay: binding. As to conditions: 10 uM compound, 60 min incubation. An outline of the steps: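 GDP-loaded (>95%) His-TEV-tagged KRAS 4B G12C (residues 1–169), 5 μM in TBS pH 7.4, incubated with 10 μM compound (4% DMSO) at 22° C for one hour. Intact-protein LC-MS gave free:adduct ratios, reported as percent protein modified; duplicate runs.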
Consider `C=CC(=O)N1[C@H](C)CN(c2nc(=O)n3c4c(c(-c5cc(Cl)c(F)cc5F)c(C(F)(F)F)cc24)SCC2(COC2)C3)C[C@@H]1C` [Example 1100, 8′-((3S,5R)-4-acryloyl-3,5-dimethylpiperazin-1-yl)-11′-(5-chloro-2,4-difluorophenyl)-10′-(trifluoromethyl)-2′H,4′H,6′H-spiro[oxetane-3,3′-[1,4]thiazepino [2,3,4-ij]quinazolin]-6′-one], for which the “% CAF 10 uM @ 60 min” value is 88.8%.
For `C=CC(=O)N1[C@H](C)CN(c2nc(=O)n3c4c(c(-c5ccc(F)cc5)c(C(F)(F)F)cc24)SC[C@@H]3COC)C[C@@H]1C` [Example 1103, (S)-7-((3S,5R)-4-acryloyl-3,5-dimethylpiperazin-1-yl)-10-(4-fluorophenyl)-3-(methoxymethyl)-9-(trifluoromethyl)-2,3-dihydro-5H-[1,4]thiazino[2,3,4-ij]quinazolin-5-one], the “% CAF 10 uM @ 60 min” value is 98%.
The same measure, in the same setting: in the case of `C=CC(=O)N1[C@H](C)CN(c2nc(=O)n3c4c(c(-c5ccc(F)cc5F)c(C(F)(F)F)cc24)SCC2(CN(CC)C2)C3)C[C@@H]1C` [Example 1104, 8-((3S,5R)-4-acryloyl-3,5-dimethylpiperazin-1-yl)-11-(2,4-difluorophenyl)-1′-ethyl-10-(trifluoromethyl)-2H-spiro[[1,4]thiazepino[2,3,4-ij]quinazoline-3,3′-azetidin]-6(4H)-one] it was 97.2%.
For `C=CC(=O)N1[C@H](C)CN(c2nc(=O)n3c4c(c(-c5cc(Cl)c(F)cc5F)c(C(F)(F)F)cc24)SC[C@H](N2CCOCC2)C3)C[C@@H]1C` [Example 1105, (3R)-8-((3S,5R)-4-acryloyl-3,5-dimethylpiperazin-1-yl)-11-(5-chloro-2,4-difluorophenyl)-3-morpholino-10-(trifluoromethyl)-3,4-dihydro-2H,6H-[1,4]thiazepino [2,3,4-ij]quinazolin-6-one], the “% CAF 10 uM @ 60 min” value came to 95.6%.
Take `C=CC(=O)N1CCN(c2nc(=O)n3c4c(c(-c5ccc(F)cc5)c(C(F)(F)F)cc24)SC[C@@H]3COC)CC1` [Example 1106, (S)-7-(4-acryloylpiperazin-1-yl)-10-(4-fluorophenyl)-3-(methoxymethyl)-9-(trifluoromethyl)-2,3-dihydro-5H-[1,4]thiazino[2,3,4-ij]quinazolin-5-one]: the “% CAF 10 uM @ 60 min” value was 98.2%.
With `C=CC(=O)N1C[C@H](C)N(c2nc(=O)n3c4c(c(-c5ccc(F)cc5)c(C(F)(F)F)cc24)SCC2(COC2)C3)C[C@H]1C` [Example 1111, 8′-((2S,5R)-4-acryloyl-2,5-dimethylpiperazin-1-yl)-11′-(4-fluorophenyl)-10′-(trifluoromethyl)-2′H,4′H,6′H-spiro[oxetane-3,3′-[1,4]thiazepino [2,3,4-ij]quinazolin]-6′-one], the “% CAF 10 uM @ 60 min” value amounted to 95.4%.

The same assay, now with this note: after 60 min.
Take `C=CC(=O)N1[C@H](C)CN(c2nc(=O)n3c4c(c(-c5cc(Cl)c(F)cc5F)c(C(F)(F)F)cc24)SC[C@@H](OCCN(C)C)C3)C[C@@H]1C` [Example 1036, (3S)-8-((3S,5R)-4-acryloyl-3,5-dimethylpiperazin-1-yl)-11-(5-chloro-2,4-difluorophenyl)-3-(2-(dimethylamino)ethoxy)-10-(trifluoromethyl)-3,4-dihydro-2H,6H-[1,4]thiazepino[2,3,4-ij]quinazolin-6-one]: the “CAF (% binding after 60 min)” value is given as 97%.
In the case of `C=CC(=O)N1CCN(c2nc(=O)n3c4c(c(-c5ccc(F)cc5)c(C(F)(F)F)cc24)SC[C@H](OC)C3)CC1` [Example 1037, (R)-8-(4-acryloylpiperazin-1-yl)-11-(4-fluorophenyl)-3-methoxy-10-(trifluoromethyl)-3,4-dihydro-2H,6H-[1,4]thiazepino[2,3,4-ij]quinazolin-6-one], the “CAF (% binding after 60 min)” value is 96%.
Turning to `C=CC(=O)N1CCN(c2nc(=O)n3c4c(c(-c5ccc(F)cc5)c(C(F)(F)F)cc24)SC[C@@H](OC)C3)CC1` [Example 1038, (S)-8-(4-acryloylpiperazin-1-yl)-11-(4-fluorophenyl)-3-methoxy-10-(trifluoromethyl)-3,4-dihydro-2H,6H-[1,4]thiazepino[2,3,4-ij]quinazolin-6-one], the “CAF (% binding after 60 min)” value is given as 97%.
Same read-out and setting: for `C=CC(=O)N1[C@H](C)CN(c2nc(=O)n3c4c(c(-c5ccc(F)cc5)c(Cl)cc24)SC[C@H](OC)C3)C[C@@H]1C` [Example 1039, (R)-8-((3S,5R)-4-acryloyl-3,5-dimethylpiperazin-1-yl)-10-chloro-11-(4-fluorophenyl)-3-methoxy-3,4-dihydro-2H,6H-[1,4]thiazepino[2,3,4-ij]quinazolin-6-one] the value was 96%; for `C=CC(=O)N1[C@H](C)CN(c2nc(=O)n3c4c(c(-c5ccc(F)cc5)c(Cl)cc24)SC[C@@H](OC)C3)C[C@@H]1C` [Example 1040, (S)-8-((3S,5R)-4-acryloyl-3,5-dimethylpiperazin-1-yl)-10-chloro-11-(4-fluorophenyl)-3-methoxy-3,4-dihydro-2H,6H-[1,4]thiazepino[2,3,4-ij]quinazolin-6-one], 96%; for `C=CC(=O)N1CCN(c2nc(=O)n3c4c(c(-c5ccc(F)c(Cl)c5)c(C(F)(F)F)cc24)SC[C@H](OC)C3)CC1` [Example 1041, (R)-8-(4-acryloylpiperazin-1-yl)-11-(3-chloro-4-fluorophenyl)-3-methoxy-10-(trifluoromethyl)-3,4-dihydro-2H,6H-[1,4]thiazepino[2,3,4-ij]quinazolin-6-one], 97%.
Regarding `C=CC(=O)N1CCN(c2nc(=O)n3c4c(c(-c5ccc(F)c(Cl)c5)c(C(F)(F)F)cc24)SC[C@@H](OC)C3)CC1` [Example 1042, (S)-8-(4-acryloylpiperazin-1-yl)-11-(3-chloro-4-fluorophenyl)-3-methoxy-10-(trifluoromethyl)-3,4-dihydro-2H,6H-[1,4]thiazepino[2,3,4-ij]quinazolin-6-one], the “CAF (% binding after 60 min)” value is 97%.
With `C=CC(=O)N1CCN(c2nc(=O)n3c4c(c(-c5ccc(F)c(Cl)c5)c(C(F)(F)F)cc24)SC[C@H](OC)C3)CC1` [Example 1043, (R)-8-(4-acryloylpiperazin-1-yl)-11-(3-chloro-4-fluorophenyl)-3-methoxy-10-(trifluoromethyl)-3,4-dihydro-2H,6H-[1,4]thiazepino[2,3,4-ij]quinazolin-6-one], the “CAF (% binding after 60 min)” value came out at 97%.
Take `C=CC(=O)N1[C@H](C)CN(c2nc(=O)n3c4c(c(-c5ccc(F)c(Cl)c5)c(C(F)(F)F)cc24)SC[C@H](OC)C3)C[C@@H]1C` [Example 1045, (R)-8-((3S,5R)-4-acryloyl-3,5-dimethylpiperazin-1-yl)-11-(3-chloro-4-fluorophenyl)-3-methoxy-10-(trifluoromethyl)-3,4-dihydro-2H,6H-[1,4]thiazepino[2,3,4-ij]quinazolin-6-one]: the “CAF (% binding after 60 min)” value is recorded as 96%.
With `C=CC(=O)N1[C@H](C)CN(c2nc(=O)n3c4c(c(-c5ccc(F)c(Cl)c5)c(C(F)(F)F)cc24)SC[C@@H](OC)C3)C[C@@H]1C` [Example 1046, (S)-8-((3S,5R)-4-acryloyl-3,5-dimethylpiperazin-1-yl)-11-(3-chloro-4-fluorophenyl)-3-methoxy-10-(trifluoromethyl)-3,4-dihydro-2H,6H-[1,4]thiazepino[2,3,4-ij]quinazolin-6-one], the “CAF (% binding after 60 min)” value came to 96%.

(Values after US20230107642A1 (Erasca, Inc., priority 2020, published 2023).)
